Data from patent publication US4448783A, “Substituted pyrazoline, and its use in treatment of gastro-intestinal disturbances” (Burroughs Wellcome Co., priority 1982, dated 1984).

Tested on: response of the rabbit colon in vitro to bradykinin
Assay: Inhibition of the bradykinin response of rabbit colon mucosa in vitro (transepithelial potential difference and short circuit current, Ussing chambers)
Assay type: cell-based, New Zealand white male rabbits
Details: Oryctolagus cuniculus, 0.5 h, incubated 30 min prior to bradykinin (1×10^-6 M), read-out: ED50 (the source's name)
From the text: Measurement of transepithelial potential difference (PD) and short circuit current (Isc)
New Zealand white male rabbits (2-3 kg) were fed standard rabbit chow and water ad lib. Rabbits were killed by cervical dislocation, and the distal colon or ileum removed rapidly, opened along its mesenteric border, and rinsed clean of luminal contents with cold Ringer's solution containing, in mmol/liter NaCl, 114; KCl, 5; NaH2 PO4, 0.3; CaCl2, 1.25; MgCl2, 1.1; and NaHCO3, 25 (standard Ringer). Before use, tissues were maintained in ice-cold Ringer with 95% O2 /5% CO2. The standard ringer solution also contained captopril (5×10^-6 M) to inhibit bradykinin metabolism.
The serosa and two muscle layers were removed by placing a 10 cm strip of ileum, serosa up, on a Lucite plate, making a transverse cut through both external muscle layers with a razor blade, and stripping off the layers longitudinally.
Transepithelial electrical potential difference (PD), total conductance (Gt), and short circuit current (Isc) were measured as described by M. Field et al (A M J. Physiol, 220 1388-1396). Six pieces of mucosa were mounted in Ussing chambers (1.12 cm^2 cross-sectional area), and bathed with 8 ml of standard Ringer on each side. Solutions were circulated by gas lift and maintained at 37° C. in water jacketed reservoirs. […]

SMILES | IC50
NC1=NN(c2cccc(C(F)(F)F)c2)CC1 [R^1 H, 3-amino-1-(3-trifluoromethylphenyl)-2-pyrazoline] | 200 µM
CNC1=NN(c2cccc(C(F)(F)F)c2)CC1 [R^1 CH3, 3-methylamino-1-(3-trifluoromethylphenyl)-2-pyrazoline] | 50 µM
